From patent US10092491B2, “Skin renewal enhancer” (priority 2015, dated 2018)

Experiment: Solubilization in anhydrous polar solvents
Type: physicochemical
Conditions: 25° C.
Protocol: It was unexpectedly discovered that both hydroxy acids and urea can be fully solubilized in anhydrous solvent at concentrations suitable for use as a chemical peel. Illustratively, for a peeling activity in the provided compositions and systems the hydroxy acid and urea must be present at a concentration of 8-10% or greater, with much greater efficacy at 10% or greater. It was discovered that anhydrous polar solvents can fully solubilize (i.e. no observable haze at 25° C.) both hydroxy acids and urea up to concentrations of 25%, thereby allowing significant efficacy when applied to the skin. The use of anhydrous glycerin (as one example) alone or optionally with or substituted by other anhydrous polar solvents (e.g. anhydrous polar solvents such as propylene glycol, butylene glycol, dimethylisosorbide, etc.) allows for the elimination of water and the prevention of the “burn” experienced in prior systems.

- concentration fully solubilized (no observable haze): ≤ 25%
Compound: NC(N)=O [urea]
